Test results published in patent US20100234438A1, “THERAPEUTIC AGENTS” (priority 2006, published 2010).

Biological target: T1, CB1 receptor (Homo sapiens, UniProt P21554)
T1 construct: expressed in transfected cells
Experiment: [35S]-GTPγS binding assay on membranes from cells stably transfected with the CB1 gene, inhibition of agonist CP55940 (EC80)
Assay type: biochemical
Conditions: half maximal inhibition of GTPγS binding in presence of EC80 concentration of CP55940; 30° C., 45 min
Description: The compound of the present invention is active against the receptor product of the CB1 gene. The affinity of the compounds of the invention for central cannabinoid receptors is demonstrable in methods described in Devane et al, Molecular Pharmacology, 1988, 34,605 or those described in WO01/70700 or EP 656354. Alternatively the assay may be performed as follows.
10 μg of membranes prepared from cells stably transfected with the CB1 gene were suspended in 200 μl of 100 mM NaCl, 5 mM MgCl2, 1 mM EDTA, 50 mM HEPES (pH 7.4), 1 mM DTT, 0.1% BSA and 100 μM GDP. To this was added an EC80 concentration of agonist (CP55940), the required concentration of test compound and 0.1 μCi [^35S]-GTPγS. The reaction was allowed to proceed at 30° C. for 45 min. […] Filters were then covered with scintilant and counted for the amount of [^35S]-GTPγS retained by the filter.
Activity is measured in the absence of all ligands (minimum activity) or in the presence of an EC80 concentration of CP55940 (maximum activity). […] At various concentrations of novel ligand, activity is calculated as a percentage of the maximum activity and plotted. The data are fitted using the equation y=A+((B−A)/1+((C/x) ÙD)) and the IC50 value determined as the concentration required to give half maximal inhibition of GTPγS binding under the conditions used.

T1 sequence (P21554 whole entry): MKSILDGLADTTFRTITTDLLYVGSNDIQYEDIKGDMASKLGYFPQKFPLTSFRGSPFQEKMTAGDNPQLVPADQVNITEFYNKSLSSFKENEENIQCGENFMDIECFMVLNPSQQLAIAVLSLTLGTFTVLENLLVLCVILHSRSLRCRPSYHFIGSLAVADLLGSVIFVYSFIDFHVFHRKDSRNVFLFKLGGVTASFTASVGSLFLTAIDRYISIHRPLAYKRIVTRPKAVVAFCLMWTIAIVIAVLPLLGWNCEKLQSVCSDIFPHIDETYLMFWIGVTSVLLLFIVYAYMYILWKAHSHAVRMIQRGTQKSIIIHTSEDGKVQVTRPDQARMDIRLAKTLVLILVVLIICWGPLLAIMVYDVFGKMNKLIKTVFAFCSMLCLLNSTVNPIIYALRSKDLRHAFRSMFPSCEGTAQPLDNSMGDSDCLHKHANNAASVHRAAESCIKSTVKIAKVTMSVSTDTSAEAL

Work on O=C(N[C@@H]1CCCC[C@@H]1O)c1nn(-c2ccc(Cl)cc2Cl)c(-c2ccc(OS(=O)(=O)CCC(F)(F)F)cc2)c1CO (single isomer, unassigned) [Example 1, (−)3,3,3-Trifluoro-propane-1-sulfonic acid 4-[2-(2,4-dichloro-phenyl)-5-(2-hydroxy-cyclohexylcarbamoyl)-4-hydroxymethyl-2H-pyrazol-3-yl]-phenyl ester] yielded an IC50 of 2.3 nM.
